Data taken from patent publication US12653796B2, “Compounds for use (in particular RIPA-56) in the prevention and/or treatment of non-alcoholic fatty liver disease” (SORBONNE UNIVERSITE, priority 2019, dated 2026).

How the values were obtained:
[1] = test system: primary human steatotic hepatocytes; assay: Fat depletion in primary human hepatocytes isolated from steatotic livers of patients with NAFLD; type: cell-based; conditions: 20 μM, 24 h
Experimental: FIG. 7. RIPA-56 treatment induces fat depletion in primary human hepatocytes. Primary human hepatocytes were isolated from steatotic human livers of patients with NAFLD (n=5) (A-C) or from non-steatotic human livers and incubated with free fatty acids to induce steatosis or without (W/O) (n=5) (D-G), and treated with RIPA-56 (20 μM) or DMSO (vehicle) for 24 h. (A, D) Representative Oil Red-O and DAPI images; (B, E) Quantification of Oil Red-O staining normalized for the number of DAPI-stained nuclei; (C, F) Quantification of intracellular triglycerides normalized to protein content; (G) mRNA levels of CPT1A, MTTP and APOB100 were assessed by RT-qPCR, and shown relative to DMSO-treated hepatocytes. Results are shown as mean±SEM; n.s., not significant; *p<0.05; **p<0.01; scale bars, 100 μm. […]
The liver fragment was initially perfused with a prewarmed (37° C.) calcium-free buffer supplemented with 5 mmol/L ethylene glycol tetra-acetic acid (Sigma) followed by perfusion with a prewarmed (37° C.) buffer containing 6 mmol/L calcium (CaCl2) and collagenase 0.05% ([…]) (Sigma). […] The count of viable cells was determined using trypan blue exclusion. […]
Intracellular lipids were stained by means of Oil Red-O (Sigma). […] Fluorescence images were viewed with IX83 Olympus microscope, acquired with Cell-Sens V1.6 and analyzed with FIJI software. […]

MLKL = assay: Western blot of MLKL phosphorylation/activation in TNF-treated L929 cells; type: cell-based; conditions: within hours
Experimental: FIG. 1. RIPA-56 prevents RIPK1-dependent cell death in L929 cells upon caspase inhibition and TNF stimulation. L929 cells were treated with RIPA-56 (20 μM), Nec-1 (20 μM) or vehicle for 2 h, prior to incubation with or without TNF (50 ng/mL), and analyzed for (A) morphology and (B) cell survival using MTT assay, after 20 h incubation with or without TNF; (C) Western blot analyses at different time points of incubation with TNF. Results are shown as mean±SEM; n.s., not significant; ****p<0.0001. Data are representative of three independent experiments.
L929 cells (LGC Standards, Molsheim, France), were cultured in Dulbecco's modified Eagle's medium (DMEM) (ThermoFisher, Massachusetts, USA) supplemented with 10% fetal bovine serum (Eurobio, Courtaboeuf, France), penicillin (100 IU/ml), streptomycin (0.1 mg/ml), and L-glutamine (0.03%) (ThermoFisher). […]
Tissue samples were homogenized in NP-40 lysis buffer using a tissue grind pestle (Kimble, Rockwood, USA) or with a bead ruptor 12 (Omni International, Georgia, USA) to obtain protein lysates. Thirty μg of protein extracts from cells or tissue homogenates were separated by SDS-PAGE, transferred to polyvinylidene difluoride membrane and analyzed by immunoblotting. […]

With `CCC(C)(C)C(=O)N(O)Cc1ccccc1` [RIPA-56, N-Benzyl-N-hydroxy-2,2-dimethylbutanamide] the “intracellular lipid droplets (Oil Red-O)” value [1] was “marked decrease”, the intracellular triglyceride content [1] was “marked decrease” and the “phosphorylation and activation of MLKL” value (MLKL) was “inhibited”.
